{"source": "the supplement of paper PMC6045584", "note": "± gives the standard deviation of the averaged measurements.", "data": [{"compound": "COc1cc2ncnc(Nc3ccc(F)c(Cl)c3)c2cc1OCCCN1CCOCC1 [GEFITINIB]", "experiment": "surviving fraction relative to DMSO-only wells; higher = less growth inhibition", "conditions": "0.5 nM; exposure time: 5 days", "outline": "(§1)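 Continuous five-day exposure to inhibitors at 0.5, 1, 5, 10, 50, 100, 500 and 1000 nM started 24 hours after log-phase tumour cell lines were seeded at 250–500 cells per well in 384-well plates. Luminescence was read after 10 minutes at room temperature. Viability is given as surviving fraction, meaning CellTiter-Glo luminescence normalised to the median of DMSO-only wells.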", "values": [{"test system": "ASKA SYNOVIAL", "surviving fraction": "1.13 ± 0.052"}, {"test system": "BT20 BREAST", "surviving fraction": "1.14 ± 0.02"}, {"test system": "BT549 BREAST", "surviving fraction": "1.1 ± 0.18"}, {"test system": "CADOES1 SOFT TISSUE", "surviving fraction": "1.01 ± 0.045"}, {"test system": "CAL51 BREAST", "surviving fraction": "1.01 ± 0.089"}, {"test system": "CAL72 BONE", "surviving fraction": "1.01 ± 0.11"}, {"test system": "CAL120 BREAST", "surviving fraction": "0.964 ± 0.046"}, {"test system": "CASKI CERVIX", "surviving fraction": "0.956 ± 0.025"}, {"test system": "CCK81 LARGE INTESTINE", "surviving fraction": "0.85 ± 0.091"}, {"test system": "CHLA90 AUTONOMIC GANGLIA", "surviving fraction": "0.939 ± 0.022"}, {"test system": "CME SYNOVIAL", "surviving fraction": "1.32 ± 0.14"}, {"test system": "COLO320DM LARGE INTESTINE", "surviving fraction": "1.17 ± 0.07"}, {"test system": "DU4475 BREAST", "surviving fraction": "0.921 ± 0.068"}, {"test system": "G292 BONE", "surviving fraction": "0.976 ± 0.023"}, {"test system": "H23 LUNG", "surviving fraction": "1.01 ± 0.07"}, {"test system": "HCC38 BREAST", "surviving fraction": "1.05 ± 0.086"}, {"test system": "HCC78 LUNG", "surviving fraction": "1.03 ± 0.2"}, {"test system": "HCC202 BREAST", "surviving fraction": "1.4 ± 0.62"}, {"test system": "HCC1806 BREAST", "surviving fraction": "1.02 ± 0.11"}, {"test system": "HMLE3 BREAST", "surviving fraction": "1.11 ± 0.075"}, {"test system": "HMT3552 BREAST", "surviving fraction": "0.987 ± 0.065"}, {"test system": "HOS BONE", "surviving fraction": "1.01 ± 0.02"}, {"test system": "HOSMNG BONE", "surviving fraction": "1.01 ± 0.035"}, {"test system": "HS57T BREAST", "surviving fraction": "0.973 ± 0.033"}, {"test system": "HSSYII SYNOVIAL", "surviving fraction": "1.04 ± 0.026"}, {"test system": "HT1080 SOFT TISSUE", "surviving fraction": "1.05 ± 0.016"}, {"test system": "HU09 BONE", "surviving fraction": "0.997 ± 0.069"}, {"test system": "HUO3N1 BONE", "surviving fraction": "0.977 ± 0.032"}, {"test system": "JIMT1 BREAST", "surviving fraction": "1.02 ± 0.051"}, {"test system": "LM7 BONE", "surviving fraction": "0.988 ± 0.039"}, {"test system": "LNCAP PROSTATE", "surviving fraction": "1.1 ± 0.22"}, {"test system": "MDAMB134 BREAST", "surviving fraction": "0.881 ± 0.014"}, {"test system": "MDAMB157 BREAST", "surviving fraction": "1.04 ± 0.033"}, {"test system": "MDAMB231 BREAST", "surviving fraction": "0.989 ± 0.026"}, {"test system": "MDAMB361 BREAST", "surviving fraction": "0.861 ± 0.02"}, {"test system": "MDAMB436 BREAST", "surviving fraction": "1.02 ± 0.091"}, {"test system": "MDAMB468 BREAST", "surviving fraction": "1.11 ± 0.097"}, {"test system": "MFM223 BREAST", "surviving fraction": "1.49 ± 0.61"}]}, {"compound": "COc1cc2ncnc(Nc3ccc(F)c(Cl)c3)c2cc1OCCCN1CCOCC1 [GEFITINIB]", "experiment": "surviving fraction relative to DMSO-only wells; higher = less growth inhibition", "conditions": "1 nM; exposure time: 5 days", "outline": "as §1", "values": [{"test system": "22RV1 PROSTATE", "surviving fraction": "0.984 ± 0.18"}, {"test system": "93VU HEADNECK", "surviving fraction": "1.07 ± 0.075"}, {"test system": "143B BONE", "surviving fraction": "1.08 ± 0.075"}, {"test system": "A549 LUNG", "surviving fraction": "1.05 ± 0.024"}, {"test system": "ASKA SYNOVIAL", "surviving fraction": "1.11 ± 0.06"}, {"test system": "BT20 BREAST", "surviving fraction": "1.19 ± 0.063"}, {"test system": "BT549 BREAST", "surviving fraction": "1.03 ± 0.073"}, {"test system": "CADOES1 SOFT TISSUE", "surviving fraction": "0.9 ± 0.058"}, {"test system": "CAL51 BREAST", "surviving fraction": "0.995 ± 0.07"}, {"test system": "CAL72 BONE", "surviving fraction": "1.02 ± 0.088"}, {"test system": "CAL120 BREAST", "surviving fraction": "0.965 ± 0.031"}, {"test system": "CASKI CERVIX", "surviving fraction": "0.929 ± 0.096"}, {"test system": "CCK81 LARGE INTESTINE", "surviving fraction": "0.849 ± 0.081"}, {"test system": "CHLA90 AUTONOMIC GANGLIA", "surviving fraction": "0.905 ± 0.089"}, {"test system": "CME SYNOVIAL", "surviving fraction": "1.3 ± 0.036"}, {"test system": "COLO320DM LARGE INTESTINE", "surviving fraction": "1.21 ± 0.051"}, {"test system": "DU4475 BREAST", "surviving fraction": "0.955 ± 0.045"}, {"test system": "G292 BONE", "surviving fraction": "1.03 ± 0.045"}, {"test system": "H23 LUNG", "surviving fraction": "0.997 ± 0.032"}, {"test system": "HCC38 BREAST", "surviving fraction": "1.33 ± 0.089"}, {"test system": "HCC78 LUNG", "surviving fraction": "0.938 ± 0.12"}, {"test system": "HCC202 BREAST", "surviving fraction": "1.2 ± 0.23"}, {"test system": "HCC1806 BREAST", "surviving fraction": "1.08 ± 0.11"}, {"test system": "HMLE3 BREAST", "surviving fraction": "1.03 ± 0.016"}, {"test system": "HMT3552 BREAST", "surviving fraction": "1 ± 0.052"}, {"test system": "HOS BONE", "surviving fraction": "1.034 ± 0.0087"}, {"test system": "HOSMNG BONE", "surviving fraction": "0.993 ± 0.0089"}, {"test system": "HS57T BREAST", "surviving fraction": "0.994 ± 0.088"}, {"test system": "HSSYII SYNOVIAL", "surviving fraction": "0.9723 ± 0.0083"}, {"test system": "HT1080 SOFT TISSUE", "surviving fraction": "1.05 ± 0.035"}, {"test system": "HU09 BONE", "surviving fraction": "0.921 ± 0.055"}, {"test system": "HUO3N1 BONE", "surviving fraction": "0.972 ± 0.053"}, {"test system": "JIMT1 BREAST", "surviving fraction": "1.02 ± 0.016"}, {"test system": "LM7 BONE", "surviving fraction": "1.01 ± 0.034"}, {"test system": "LNCAP PROSTATE", "surviving fraction": "0.915 ± 0.067"}, {"test system": "MDAMB134 BREAST", "surviving fraction": "0.974 ± 0.067"}, {"test system": "MDAMB157 BREAST", "surviving fraction": "0.968 ± 0.067"}, {"test system": "MDAMB231 BREAST", "surviving fraction": "0.987 ± 0.026"}, {"test system": "MDAMB361 BREAST", "surviving fraction": "0.851 ± 0.071"}, {"test system": "MDAMB436 BREAST", "surviving fraction": "1.01 ± 0.06"}, {"test system": "MDAMB468 BREAST", "surviving fraction": "1.08 ± 0.062"}, {"test system": "MFM223 BREAST", "surviving fraction": "1.42 ± 0.47"}]}, {"compound": "COc1cc2ncnc(Nc3ccc(F)c(Cl)c3)c2cc1OCCCN1CCOCC1 [GEFITINIB]", "experiment": "surviving fraction relative to DMSO-only wells; higher = less growth inhibition", "conditions": "5 nM; exposure time: 5 days", "outline": "as §1", "values": [{"test system": "22RV1 PROSTATE", "surviving fraction": "0.979 ± 0.085"}, {"test system": "93VU HEADNECK", "surviving fraction": "1.08 ± 0.027"}, {"test system": "143B BONE", "surviving fraction": "1.11 ± 0.084"}]}]}
